For test [1], the system named is Staphylococcus aureus. In words: Antibacterial activity against Staphylococcus aureus MTCC 3160 after 24 hrs by agar diffusion assay. Format: functional. (In general: A growth-free zone around the sample is the usual read-out of agar diffusion tests.)
The test system of test [2] is Bacillus subtilis. In words: Antibacterial activity against Bacillus subtilis MTCC 121 after 24 hrs by agar diffusion assay. Format: functional.
Test [3] deals with Escherichia coli. The test is described as follows: Antibacterial activity against Escherichia coli MTCC 51 after 24 hrs by agar diffusion assay. Format: functional.
The test system of test [4] is Salmonella typhi. In words: Antibacterial activity against Salmonella typhi MTCC 733 after 24 hrs by agar dilution assay. Format: functional, Salmonella enterica subsp. enterica serovar Typhi. The settings on record: Salmonella enterica, MTCC 733, 24 h. (In general: In agar dilution the substance is mixed into plates at graded concentrations.)
Test [5] concerns Salmonella typhi. In words: Antibacterial activity against Salmonella typhi MTCC 733 after 24 hrs by agar diffusion assay. Format: functional, Salmonella enterica subsp. enterica serovar Typhi.
Test [6] concerns Staphylococcus aureus. In words: Antibacterial activity against Staphylococcus aureus MTCC 3160 after 24 hrs by agar dilution assay. Format: functional. The conditions noted are these: MTCC 3160, 24 h.
In test [7] the test system is Staphylococcus epidermidis. In words: Antibacterial activity against Staphylococcus epidermidis MTCC 2639 after 24 hrs by agar diffusion assay. Format: functional.
Test [8] deals with Staphylococcus epidermidis. The test is described as follows: Antibacterial activity against Staphylococcus epidermidis MTCC 2639 after 24 hrs by agar dilution assay. Format: functional. The conditions noted are these: MTCC 2639, 24 h.
Test [9] has as its system Escherichia coli. In words: Antibacterial activity against Escherichia coli MTCC 51 after 24 hrs by agar dilution assay. Format: functional. The conditions noted are these: MTCC 51, 24 h.
Test [10] has as its system Bacillus subtilis. The test is described as follows: Antibacterial activity against Bacillus subtilis MTCC 121 after 24 hrs by agar dilution assay. Format: functional. The settings on record: MTCC 121, 24 h.

In brackets after ≈: the same amount, converted by molar mass. Activity calls are given as the source filed them.

Turning to `c1coc(-c2nnc3n2ccc2nnc(-c4ccco4)n23)c1`, the “inhibition zone (IZ)” value worked out at 40 mm with Staphylococcus aureus [1]; 20 mm with Bacillus subtilis [2]; 10 mm in the test with Escherichia coli [3]; 10 mm in the test with Salmonella typhi [5]; 10 mm in [7]. The MIC against Salmonella typhi [4] was determined as 64 µg/mL (≈ 219 µM); in the test with Staphylococcus aureus [6] it was 0.5 µg/mL (≈ 1.71 µM); in test [8], 64 µg/mL (≈ 219 µM); in the test on Escherichia coli [9], 64 µg/mL (≈ 219 µM); against Bacillus subtilis [10], 8 µg/mL (≈ 27.4 µM).
For `CC(=O)NC[C@H]1CN(c2ccc(N3CCOCC3)c(F)c2)C(=O)O1` [LINEZOLID], the minimum inhibitory concentration (MIC) against Salmonella typhi [4] was 2 µg/mL (≈ 5.93 µM); in test [8] it was 8 µg/mL (≈ 23.7 µM); in the test with Escherichia coli [9], 8 µg/mL (≈ 23.7 µM); against Bacillus subtilis [10], 2 µg/mL (≈ 5.93 µM).
As to `O=[N+]([O-])c1ccc(-c2nnc3n2ccc2nnc(-c4ccc([N+](=O)[O-])cc4)n23)cc1`, the “inhibition zone (IZ)” value is 30 mm with Staphylococcus aureus [1]; 30 mm with Bacillus subtilis [2]; 25 mm in the test with Escherichia coli [3]; 30 mm in the test on Salmonella typhi [5]; 25.16 mm in test [7]. For the same molecule, the MIC in the test with Salmonella typhi [4] stood at 1 µg/mL (≈ 2.49 µM); against Staphylococcus aureus [6], 1 µg/mL (≈ 2.49 µM); in test [8], 2 µg/mL (≈ 4.97 µM); against Escherichia coli [9], 2 µg/mL (≈ 4.97 µM); in the test on Bacillus subtilis [10], 1 µg/mL (≈ 2.49 µM).
With `Fc1ccc(-c2nnc3n2ccc2nnc(-c4ccc(F)cc4)n23)cc1`, the “inhibition zone (IZ)” value with Staphylococcus aureus [1] is on record as 24.83 mm; in the test on Bacillus subtilis [2], 25 mm; in the test with Salmonella typhi [5] it was 10 mm; in test [7], 25 mm. Further, in the test with Escherichia coli [3], the result was inactive. Moreover, the minimum inhibitory concentration (MIC) against Salmonella typhi [4] is 64 µg/mL (≈ 184 µM); with Staphylococcus aureus [6], 4 µg/mL (≈ 11.5 µM); in test [8], 4 µg/mL (≈ 11.5 µM); against Escherichia coli [9] it was 4 µg/mL (≈ 11.5 µM); against Bacillus subtilis [10], 2 µg/mL (≈ 5.74 µM).
Take `N[C@@H](C(=O)N[C@@H]1C(=O)N2C(C(=O)O)=C(Cl)CS[C@H]12)c1ccccc1` [CEFACLOR ANHYDROUS]: the MIC against Salmonella typhi [4] came out at 2 µg/mL (≈ 5.44 µM); in the test with Staphylococcus aureus [6] it was 4 µg/mL (≈ 10.9 µM); in test [8], 4 µg/mL (≈ 10.9 µM); in the test with Escherichia coli [9], 4 µg/mL (≈ 10.9 µM); against Bacillus subtilis [10], 8 µg/mL (≈ 21.8 µM).
For the molecule `Cc1ccc(-c2nnc3n2ccc2nnc(-c4ccc(C)cc4)n23)cc1`, the result (in the test on Staphylococcus aureus [1]; in the test on Escherichia coli [3]; in the test on Salmonella typhi [5] (Salmonella enterica subsp. enterica serovar Typhi); in [7]) was inactive. In the test with Bacillus subtilis [2], the “inhibition zone (IZ)” value turned out to be 20.83 mm. Further, the MIC against Salmonella typhi [4] was over 64 µg/mL; in the test with Staphylococcus aureus [6], over 64 µg/mL; in test [8], over 64 µg/mL; against Escherichia coli [9], over 64 µg/mL; in the test on Bacillus subtilis [10], 8 µg/mL (≈ 23.5 µM).
As for `O=[N+]([O-])c1ccc(-c2nnc3n2ccc2nnc(-c4ccc([N+](=O)[O-])o4)n23)o1`, the “inhibition zone (IZ)” value in the test with Staphylococcus aureus [1] stood at 20.83 mm; in the test with Bacillus subtilis [2], 40 mm; in the test on Escherichia coli [3] it was 30 mm; in the test on Salmonella typhi [5], 35.16 mm; in test [7], 35 mm. For the same molecule, the minimum inhibitory concentration (MIC) against Salmonella typhi [4] is 1 µg/mL (≈ 2.62 µM); against Staphylococcus aureus [6], 8 µg/mL (≈ 20.9 µM); in [8] it was 1 µg/mL (≈ 2.62 µM); in the test on Escherichia coli [9], 2 µg/mL (≈ 5.23 µM); against Bacillus subtilis [10], 0.5 µg/mL (≈ 1.31 µM).
Consider `COc1ccc(OC)c(-c2nnc3n2ccc2nnc(-c4cc(OC)ccc4OC)n23)c1`, for which the “inhibition zone (IZ)” value with Staphylococcus aureus [1] is listed as 20.16 mm; with Bacillus subtilis [2] it was 15.16 mm; in the test on Salmonella typhi [5], 20 mm; in [7], 20 mm. Besides, the outcome in the test on Escherichia coli [3] was inactive. Moreover, the MIC against Salmonella typhi [4] was 8 µg/mL (≈ 18.5 µM); in the test on Staphylococcus aureus [6] it was 8 µg/mL (≈ 18.5 µM); in test [8] it was 8 µg/mL (≈ 18.5 µM); with Escherichia coli [9], over 64 µg/mL; with Bacillus subtilis [10] it was 32 µg/mL (≈ 74 µM).
On to `Clc1ccc(-c2nnc3n2ccc2nnc(-c4ccc(Cl)cc4)n23)cc1`, for which the “inhibition zone (IZ)” value in the test with Staphylococcus aureus [1] was found to be 15 mm; in the test on Bacillus subtilis [2] it was 20 mm; with Salmonella typhi [5] it was 20 mm. Moreover, the result (in the test with Escherichia coli [3]; in [7]) was inactive. In addition, the minimal inhibitory concentration (MIC) against Salmonella typhi [4] was 8 µg/mL (≈ 21 µM); in the test with Staphylococcus aureus [6], 32 µg/mL (≈ 83.9 µM); in [8], over 64 µg/mL; with Escherichia coli [9], over 64 µg/mL; in the test with Bacillus subtilis [10], 8 µg/mL (≈ 21 µM).
Consider `Brc1ccc(-c2nnc3n2ccc2nnc(-c4ccc(Br)cc4)n23)cc1`, for which the result (in the test on Staphylococcus aureus [1]; in the test on Bacillus subtilis [2]; in the test with Escherichia coli [3]; in test [7]) was inactive. Moreover, the MIC with Salmonella typhi [4] is 32 µg/mL (≈ 68.1 µM); in the test on Staphylococcus aureus [6], over 64 µg/mL; in test [8] it was over 64 µg/mL; in the test with Escherichia coli [9] it was over 64 µg/mL; against Bacillus subtilis [10] it was over 64 µg/mL. Further, the “inhibition zone (IZ)” value in the test with Salmonella typhi [5] worked out at 15 mm.
Regarding `COc1ccc(-c2nnc3n2ccc2nnc(-c4ccc(OC)cc4)n23)cc1`, the “inhibition zone (IZ)” value in the test on Staphylococcus aureus [1] is given as 10.83 mm; in the test on Bacillus subtilis [2] it was 10 mm; with Salmonella typhi [5], 10 mm. Moreover, the outcome (with Escherichia coli [3]; in test [7]) was inactive. The minimum inhibitory concentration (MIC) against Salmonella typhi [4] was 64 µg/mL (≈ 172 µM); in the test with Staphylococcus aureus [6], 64 µg/mL (≈ 172 µM); in [8], over 64 µg/mL; in the test on Escherichia coli [9], over 64 µg/mL; against Bacillus subtilis [10], 64 µg/mL (≈ 172 µM).

A word on the MIC: it is the smallest concentration in the dilution series that meets the test's criterion for growth inhibition.

For the origin of these results see ChEMBL document CHEMBL1146362, “Organoiodine(III) mediated synthesis of 3,9-diaryl- and 3,9-difuryl-bis-1,2,4-triazolo[4,3-a][4,3-c]pyrimidines as antibacterial agents” (2007).
